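Each compound was tested at five concentrations against cells in 96-well plates for 48 hours. TGI denotes the concentration required for complete inhibition of growth.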
Key:
Assay in all cases: inhibition of tumour cell growth, NCI panel, 48 h
K-562 leukemia = tested on: K-562 leukemia
OVCAR-5 ovarian = tested on: OVCAR-5 ovarian
NCI/ADR-RES ovarian = tested on: NCI/ADR-RES ovarian
UO-31 renal = tested on: UO-31 renal
UACC-62 melanoma = tested on: UACC-62 melanoma
HCT-15 colon = tested on: HCT-15 colon
DU-145 prostate = tested on: DU-145 prostate
NCI-H23 lung = tested on: NCI-H23 lung
T-47D breast = tested on: T-47D breast
NCI-H460 lung = tested on: NCI-H460 lung
SK-MEL-28 melanoma = tested on: SK-MEL-28 melanoma
SK-OV-3 ovarian = tested on: SK-OV-3 ovarian
MDA-MB-435 = tested on: MDA-MB-435
EKVX NSCLC = tested on: EKVX NSCLC
U251 CNS = tested on: U251 CNS
MCF7 breast = tested on: MCF7 breast
RXF 393 renal = tested on: RXF 393 renal
OVCAR-3 ovarian = tested on: OVCAR-3 ovarian
ACHN renal = tested on: ACHN renal
RPMI-8226 leukemia = tested on: RPMI-8226 leukemia
SNB-19 CNS = tested on: SNB-19 CNS
TK-10 renal = tested on: TK-10 renal
A498 renal = tested on: A498 renal
SN12C renal = tested on: SN12C renal
SK-MEL-2 melanoma = tested on: SK-MEL-2 melanoma
OVCAR-8 ovarian = tested on: OVCAR-8 ovarian
BT-549 breast = tested on: BT-549 breast
HOP-92 NSCLC = tested on: HOP-92 NSCLC
MDA-N = tested on: MDA-N
HCT-116 colon = tested on: HCT-116 colon
LOX IMVI melanoma = tested on: LOX IMVI melanoma
MALME-3M melanoma = tested on: MALME-3M melanoma
HT29 colon = tested on: HT29 colon
MDA-MB-231 breast = tested on: MDA-MB-231 breast
PC-3 prostate = tested on: PC-3 prostate
OVCAR-4 ovarian = tested on: OVCAR-4 ovarian
HOP-62 NSCLC = tested on: HOP-62 NSCLC
HL-60(TB) leukemia = tested on: HL-60(TB) leukemia
786-0 renal = tested on: 786-0 renal
NCI-H226 lung = tested on: NCI-H226 lung
SF-539 CNS = tested on: SF-539 CNS
UACC-257 melanoma = tested on: UACC-257 melanoma
SNB-75 CNS = tested on: SNB-75 CNS
CAKI-1 renal = tested on: CAKI-1 renal
COLO 205 colon = tested on: COLO 205 colon
SF-295 CNS = tested on: SF-295 CNS
IGROV1 ovarian = tested on: IGROV1 ovarian
SK-MEL-5 melanoma = tested on: SK-MEL-5 melanoma
A549 NSCLC = tested on: A549 NSCLC
HCC-2998 colon = tested on: HCC-2998 colon
M14 melanoma = tested on: M14 melanoma
KM12 colon = tested on: KM12 colon
SR leukemia = tested on: SR leukemia
MOLT-4 leukemia = tested on: MOLT-4 leukemia
SW-620 colon = tested on: SW-620 colon
CCRF-CEM leukemia = tested on: CCRF-CEM leukemia
HS 578T breast = tested on: HS 578T breast
SF-268 CNS = tested on: SF-268 CNS
NCI-H522 lung = tested on: NCI-H522 lung

SMILES: Cn1c(-c2ccc(C=O)o2)ccc1-c1ccc(C=O)o1
- TGI (K-562 leukemia): > 100 µM
- TGI (OVCAR-5 ovarian): > 100 µM
- TGI (NCI/ADR-RES ovarian): > 100 µM
- TGI (UO-31 renal): > 100 µM
- TGI (UACC-62 melanoma): > 100 µM
- TGI (HCT-15 colon): > 100 µM
- TGI (DU-145 prostate): > 100 µM
- TGI (NCI-H23 lung): > 100 µM
- TGI (T-47D breast): > 100 µM
- TGI (NCI-H460 lung): > 100 µM
- TGI (SK-MEL-28 melanoma): > 100 µM
- TGI (SK-OV-3 ovarian): > 100 µM
- TGI (MDA-MB-435): > 100 µM
- TGI (EKVX NSCLC): > 100 µM
- TGI (U251 CNS): > 100 µM
- TGI (MCF7 breast): > 100 µM
- TGI (RXF 393 renal): > 100 µM
- TGI (OVCAR-3 ovarian): 81.2 µM
- TGI (ACHN renal): > 100 µM
- TGI (RPMI-8226 leukemia): > 100 µM
- TGI (SNB-19 CNS): > 100 µM
- TGI (TK-10 renal): > 100 µM
- TGI (A498 renal): > 100 µM
- TGI (SN12C renal): > 100 µM
- TGI (SK-MEL-2 melanoma): > 100 µM
- TGI (OVCAR-8 ovarian): > 100 µM
- TGI (BT-549 breast): > 100 µM
- TGI (HOP-92 NSCLC): > 100 µM
- TGI (MDA-N): > 100 µM
- TGI (HCT-116 colon): 36.7 µM
- TGI (LOX IMVI melanoma): > 100 µM
- TGI (MALME-3M melanoma): > 100 µM
- TGI (HT29 colon): > 100 µM
- TGI (MDA-MB-231 breast): > 100 µM
- TGI (PC-3 prostate): > 100 µM
- TGI (OVCAR-4 ovarian): > 100 µM
- TGI (HOP-62 NSCLC): > 100 µM
- TGI (HL-60(TB) leukemia): 46 µM
- TGI (786-0 renal): > 100 µM
- TGI (NCI-H226 lung): > 100 µM
- TGI (SF-539 CNS): 63.7 µM
- TGI (UACC-257 melanoma): > 100 µM
- TGI (SNB-75 CNS): > 100 µM
- TGI (CAKI-1 renal): 36.8 µM
- TGI (COLO 205 colon): > 100 µM
- TGI (SF-295 CNS): > 100 µM
- TGI (IGROV1 ovarian): > 100 µM
- TGI (SK-MEL-5 melanoma): > 100 µM
- TGI (A549 NSCLC): > 100 µM
- TGI (HCC-2998 colon): > 100 µM
- TGI (M14 melanoma): > 100 µM
- TGI (KM12 colon): > 100 µM
- TGI (SR leukemia): > 100 µM
- TGI (MOLT-4 leukemia): 80.3 µM
- TGI (SW-620 colon): > 100 µM
- TGI (CCRF-CEM leukemia): > 100 µM

SMILES: COc1ccc2c(c1)c1c3c(ccc4ncn2c43)N(CCO)CCN=1
- TGI (K-562 leukemia): 0.228 µM
- TGI (OVCAR-5 ovarian): 0.715 µM
- TGI (NCI/ADR-RES ovarian): 1.76 µM
- TGI (UO-31 renal): 0.255 µM
- TGI (UACC-62 melanoma): 0.602 µM
- TGI (HCT-15 colon): 0.611 µM
- TGI (DU-145 prostate): 1.59 µM
- TGI (NCI-H23 lung): 0.466 µM
- TGI (T-47D breast): 1.42 µM
- TGI (NCI-H460 lung): 0.484 µM
- TGI (SK-MEL-28 melanoma): 0.941 µM
- TGI (SK-OV-3 ovarian): 2.03 µM
- TGI (MDA-MB-435): 0.834 µM
- TGI (EKVX NSCLC): 1.08 µM
- TGI (U251 CNS): 1.09 µM
- TGI (MCF7 breast): 0.944 µM
- TGI (RXF 393 renal): 0.473 µM
- TGI (OVCAR-3 ovarian): 0.648 µM
- TGI (HS 578T breast): 0.605 µM
- TGI (ACHN renal): 0.543 µM
- TGI (RPMI-8226 leukemia): 2.56 µM
- TGI (SNB-19 CNS): 1.46 µM
- TGI (TK-10 renal): 2.23 µM
- TGI (A498 renal): 0.382 µM
- TGI (SN12C renal): 0.519 µM
- TGI (SK-MEL-2 melanoma): 0.359 µM
- TGI (OVCAR-8 ovarian): 1.72 µM
- TGI (SF-268 CNS): 1.86 µM
- TGI (HOP-92 NSCLC): 5.2 µM
- TGI (MDA-N): 0.808 µM
- TGI (HCT-116 colon): 0.214 µM
- TGI (LOX IMVI melanoma): 0.468 µM
- TGI (MALME-3M melanoma): 0.43 µM
- TGI (HT29 colon): 0.898 µM
- TGI (MDA-MB-231 breast): 0.511 µM
- TGI (PC-3 prostate): 0.464 µM
- TGI (OVCAR-4 ovarian): 0.915 µM
- TGI (HOP-62 NSCLC): 0.476 µM
- TGI (HL-60(TB) leukemia): 0.407 µM
- TGI (786-0 renal): 1.06 µM
- TGI (NCI-H226 lung): 0.522 µM
- TGI (SF-539 CNS): 0.347 µM
- TGI (UACC-257 melanoma): 1.39 µM
- TGI (SNB-75 CNS): 1.19 µM
- TGI (CAKI-1 renal): 2.51 µM
- TGI (COLO 205 colon): 0.158 µM
- TGI (SF-295 CNS): 0.831 µM
- TGI (IGROV1 ovarian): 5.53 µM
- TGI (SK-MEL-5 melanoma): 0.403 µM
- TGI (A549 NSCLC): 2.22 µM
- TGI (HCC-2998 colon): 0.369 µM
- TGI (M14 melanoma): 0.772 µM
- TGI (KM12 colon): 1.22 µM
- TGI (SR leukemia): 0.207 µM
- TGI (MOLT-4 leukemia): 0.656 µM
- TGI (SW-620 colon): 3.64 µM
- TGI (CCRF-CEM leukemia): 0.305 µM
- TGI (NCI-H522 lung): 0.277 µM

Reference: PubChem BioAssay (NCI)
